# Data taken from PubChem BioAssay AID192 (DTP/NCI, 2004).
# Where “and” joins values, the source holds several entries; their conditions need not be identical. Equal values may be shown once. Toxic doses and inconclusive results are not listed.
# System: BDF1 mice, B16 melanoma ip, median survival T/C
# Assay: NCI In Vivo Anticancer Drug Screen. Data for tumor model B16 Melanoma (intraperitoneal) in B6D2F1 (BDF1) mice
# Conditions: endpoint: median survival time, higher = longer survival
# How it was run: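 In this screen, activity was judged from survival or tumor size in treated versus vehicle-treated tumor-bearing mice, reported as T/C.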
# [1] = dose: 25.0 mg/kg/injection, schedule: Q01DX009 (ip), vehicle: saline with Tween-80
# [2] = dose: 100.0 mg/kg/injection, schedule: Q01DX009 (ip), vehicle: saline with Tween-80
# [3] = dose: 25.0 mg/kg/injection, schedule: Q01DX009 (ip), vehicle: Klucel (hydroxypropylcellulose) (HPC)
# [4] = dose: 50.0 mg/kg/injection, schedule: Q01DX009 (ip), vehicle: Klucel (hydroxypropylcellulose) (HPC)
# [5] = dose: 100.0 mg/kg/injection, schedule: Q01DX009 (ip), vehicle: Klucel (hydroxypropylcellulose) (HPC)
# [6] = dose: 200.0 mg/kg/injection, schedule: Q01DX009 (ip), vehicle: Klucel (hydroxypropylcellulose) (HPC)
# [7] = dose: 12.5 mg/kg/injection, schedule: Q01DX009 (ip), vehicle: saline
# [8] = dose: 25.0 mg/kg/injection, schedule: Q01DX009 (ip), vehicle: saline
# [9] = dose: 50.0 mg/kg/injection, schedule: Q01DX009 (ip), vehicle: saline
# [10] = dose: 100.0 mg/kg/injection, schedule: Q01DX009 (ip), vehicle: saline
# [11] = dose: 6.25 mg/kg/injection, schedule: Q01DX009 (ip), vehicle: saline with Tween-80
# [12] = dose: 100.0 mg/kg/injection, schedule: Q04DX003 (ip), vehicle: Klucel (hydroxypropylcellulose) (HPC)
# [13] = dose: 200.0 mg/kg/injection, schedule: Q04DX003 (ip), vehicle: Klucel (hydroxypropylcellulose) (HPC)
# [14] = dose: 6.25 mg/kg/injection, schedule: Q01DX009 (ip), vehicle: saline
# [15] = dose: 12.5 mg/kg/injection, schedule: Q01DX009 (ip), vehicle: saline with Tween-80
smiles,measurement,setting,value
COc1ccc(OC)c(C2N(Cc3ccc(N(C)C)cc3)CCCN2Cc2ccc(N(C)C)cc2)c1,T/C,[1],104 % of control
same,T/C,"dose: 50.0 mg/kg/injection, schedule: Q01DX009 (ip), vehicle: saline with Tween-80",97 % of control
same,T/C,[2],100 % of control
O=NN(CCCl)C(=O)Nc1c[nH]c2ccccc12,T/C,[3],153 % of control and 158 % of control
same,T/C,[4],157 % of control and 158 % of control and 165 % of control
same,T/C,[5],162 % of control and 174 % of control
same,T/C,[6],174 % of control
C=C1CCC2(C)C(O)CC3(C)C(CCC4C5(C)CCC(OC(C)=O)C(C)(C)C5CCC43C)C2C1C (stereo not given),T/C,"dose: 1.0 mg/kg/injection, schedule: Q01DX009 (ip), vehicle: other",107 % of control
same,T/C,"dose: 2.0 mg/kg/injection, schedule: Q01DX009 (ip), vehicle: other",101 % of control
same,T/C,"dose: 4.0 mg/kg/injection, schedule: Q01DX009 (ip), vehicle: other",102 % of control
O=[N+]([O-])/C=C\c1ccc2c(c1)OCO2,T/C,"dose: 22.0 mg/kg/injection, schedule: Q01DX009 (ip), vehicle: Klucel (hydroxypropylcellulose) (HPC)",96 % of control
same,T/C,"dose: 33.0 mg/kg/injection, schedule: Q01DX009 (ip), vehicle: Klucel (hydroxypropylcellulose) (HPC)",108 % of control
same,T/C,[4],96 % of control
same,T/C,"dose: 75.0 mg/kg/injection, schedule: Q01DX009 (ip), vehicle: Klucel (hydroxypropylcellulose) (HPC)",100 % of control
CC(N)Cc1ccc(O)cc1 (stereo not given),T/C,[7],102 % of control
same,T/C,[8],110 % of control
same,T/C,[9],100 % of control
same,T/C,[10],105 % of control
same,T/C,"dose: 200.0 mg/kg/injection, schedule: Q01DX009 (ip), vehicle: saline",100 % of control
Nc1ccc2ncccc2c1,T/C,[7],111 % of control
same,T/C,[8],105 % of control
same,T/C,[9],109 % of control
CS(=O)(=O)OCCN(CCOS(C)(=O)=O)c1ccc(C=O)cc1,T/C,[11],170 % of control
Nc1ccccc1N,T/C,"dose: 12.5 mg/kg/injection, schedule: Q01DX009 (ip), vehicle: Klucel (hydroxypropylcellulose) (HPC)",96 % of control
same,T/C,[3],98 % of control
same,T/C,"dose: 25.0 mg/kg/injection, schedule: Q02DX009 (ip), vehicle: saline with Tween-80",106 % of control
same,T/C,[4],98 % of control
same,T/C,[5],102 % of control
same,T/C,"dose: 100.0 mg/kg/injection, schedule: Q02DX009 (ip), vehicle: saline with Tween-80",100 % of control
same,T/C,"dose: 200.0 mg/kg/injection, schedule: Q02DX009 (ip), vehicle: saline with Tween-80",100 % of control
CC1CC(=O)c2ccccc2N1S(C)(=O)=O (stereo not given),T/C,[12],102 % of control
same,T/C,[13],100 % of control
same,T/C,"dose: 400.0 mg/kg/injection, schedule: Q04DX003 (ip), vehicle: Klucel (hydroxypropylcellulose) (HPC)",95 % of control
C=C1CC2(OC1=O)C(=O)N(C)c1ccc(I)cc12 (stereo not given),T/C,[14],100 % of control and 104 % of control
same,T/C,[7],101 % of control and 112 % of control
same,T/C,[8],95 % of control and 104 % of control
same,T/C,[9],110 % of control
CC(=O)C(O)N1C(=O)C=CC1=O (stereo not given),T/C,"dose: 0.32 mg/kg/injection, schedule: Q01DX009 (ip), vehicle: saline with Tween-80",100 % of control
same,T/C,"dose: 0.63 mg/kg/injection, schedule: Q01DX009 (ip), vehicle: saline with Tween-80",108 % of control
same,T/C,"dose: 1.25 mg/kg/injection, schedule: Q01DX009 (ip), vehicle: saline with Tween-80",111 % of control
same,T/C,"dose: 2.5 mg/kg/injection, schedule: Q01DX009 (ip), vehicle: saline with Tween-80",105 % of control
same,T/C,"dose: 5.0 mg/kg/injection, schedule: Q01DX009 (ip), vehicle: saline with Tween-80",105 % of control
Cc1ccc(CS)cc1,T/C,[5],112 % of control
same,T/C,[6],118 % of control
Nc1n[nH]c(C(=O)O)n1,T/C,[5],97 % of control
same,T/C,[6],97 % of control
same,T/C,"dose: 400.0 mg/kg/injection, schedule: Q01DX009 (ip), vehicle: Klucel (hydroxypropylcellulose) (HPC)",97 % of control
Clc1ccc(C(c2ccc(Cl)cc2)C(Cl)(Cl)Cl)cc1,T/C,"dose: 16.0 mg/kg/injection, schedule: Q01DX009 (ip), vehicle: Klucel (hydroxypropylcellulose) (HPC)",101 % of control
same,T/C,"dose: 32.0 mg/kg/injection, schedule: Q01DX009 (ip), vehicle: Klucel (hydroxypropylcellulose) (HPC)",92 % of control
CSc1ccc2c(c1)N(CCCN(C)C)c1ccccc1S2,T/C,"dose: 3.12 mg/kg/injection, schedule: Q01DX009 (ip), vehicle: saline",100 % of control
same,T/C,[14],107 % of control and 112 % of control
same,T/C,[7],97 % of control and 124 % of control
same,T/C,[8],100 % of control and 124 % of control
C#CC1(OCC(CCl)OC(N)=O)CCCCC1 (stereo not given),T/C,[1],87 % of control
same,T/C,[2],104 % of control
NC1CC[N-]CC1.NC1CC[N-]CC1.NC1CC[N-]CC1.NC1CC[N-]CC1.[Cl][Rh][Cl],T/C,[11],103 % of control
same,T/C,[15],101 % of control
same,T/C,[1],93 % of control
COc1cc2c(c(OC)c1OC)-c1cc3c(cc1[C@@H](OC(C)=O)[C@@H]1COC(=O)[C@H]1C2)OCO3,T/C,"dose: 1.25 mg/kg/injection, schedule: Q01DX009 (ip), vehicle: Klucel (hydroxypropylcellulose) (HPC)",104 % of control
same,T/C,"dose: 2.5 mg/kg/injection, schedule: Q01DX009 (ip), vehicle: Klucel (hydroxypropylcellulose) (HPC)",94 % of control
same,T/C,"dose: 5.0 mg/kg/injection, schedule: Q01DX009 (ip), vehicle: Klucel (hydroxypropylcellulose) (HPC)",104 % of control
same,T/C,"dose: 10.0 mg/kg/injection, schedule: Q01DX009 (ip), vehicle: Klucel (hydroxypropylcellulose) (HPC)",102 % of control
CCOc1ccc(OCC)c(NC(=O)c2ccccc2)c1,T/C,[2],114 % of control
same,T/C,"dose: 200.0 mg/kg/injection, schedule: Q01DX009 (ip), vehicle: saline with Tween-80",110 % of control
same,T/C,"dose: 400.0 mg/kg/injection, schedule: Q01DX009 (ip), vehicle: saline with Tween-80",110 % of control
CN(C)c1nc(N)nc(Nc2ccc(Br)cc2)c1N=O,T/C,[6],118 % of control
CN1CCN=C(c2ccccc2)c2cc(Cl)ccc21,T/C,[14],117 % of control
same,T/C,[7],117 % of control
same,T/C,[8],115 % of control
same,T/C,[9],106 % of control
same,T/C,[10],100 % of control
c1ccc(C(=C2CCC2)c2c3ccccc3cc3ccccc23)cc1,T/C,"dose: 25.0 mg/kg/injection, schedule: Q04DX003 (ip), vehicle: Klucel (hydroxypropylcellulose) (HPC)",102 % of control
same,T/C,"dose: 50.0 mg/kg/injection, schedule: Q04DX003 (ip), vehicle: Klucel (hydroxypropylcellulose) (HPC)",91 % of control
same,T/C,[12],105 % of control
CC(CNCCN)C[Si](C)(C)C (stereo not given),T/C,"dose: 12.5 mg/kg/injection, schedule: Q01DX009 (ip), vehicle: suspension in saline",99 % of control
same,T/C,"dose: 25.0 mg/kg/injection, schedule: Q01DX009 (ip), vehicle: suspension in saline",96 % of control
CCCCCc1cc(O)c2c(c1)OC(C)(C)c1ccc(C)cc1-2,T/C,"dose: 64.0 mg/kg/injection, schedule: Q01DX009 (ip), vehicle: saline",115 % of control
same,T/C,"dose: 128.0 mg/kg/injection, schedule: Q01DX009 (ip), vehicle: saline",110 % of control
same,T/C,"dose: 256.0 mg/kg/injection, schedule: Q01DX009 (ip), vehicle: saline",112 % of control
same,T/C,"dose: 512.0 mg/kg/injection, schedule: Q01DX009 (ip), vehicle: saline",88 % of control
CC(C)C[NH-].CC(C)C[NH-].O.O.[Cl][Pt+2][Cl],T/C,"dose: 10.0 mg/kg/injection, schedule: Q01DX009 (ip), vehicle: other",151 % of control
same,T/C,"dose: 30.0 mg/kg/injection, schedule: Q01DX009 (ip), vehicle: other",160 % of control
same,T/C,"dose: 40.0 mg/kg/injection, schedule: Q01DX009 (ip), vehicle: other",214 % of control
same,T/C,"dose: 50.0 mg/kg/injection, schedule: Q01DX009 (ip), vehicle: other",169 % of control
NOCc1cccc(CON)c1,T/C,"dose: 12.5 mg/kg/injection, schedule: Q04DX003 (ip), vehicle: saline",123 % of control
same,T/C,"dose: 25.0 mg/kg/injection, schedule: Q04DX003 (ip), vehicle: saline",118 % of control
same,T/C,"dose: 50.0 mg/kg/injection, schedule: Q04DX003 (ip), vehicle: saline",115 % of control
COC(=O)C1CCC(C(=O)O)CC1 (stereo not given),T/C,[12],100 % of control
same,T/C,[13],100 % of control
COc1ccccc1NC(=O)Nc1c(C)cccc1C,T/C,"dose: 100.0 mg/kg/injection, schedule: Q01DX009 (ip), vehicle: gum acacia",101 % of control
same,T/C,"dose: 200.0 mg/kg/injection, schedule: Q01DX009 (ip), vehicle: gum acacia",102 % of control
same,T/C,"dose: 400.0 mg/kg/injection, schedule: Q01DX009 (ip), vehicle: gum acacia",90 % of control
CNC(=S)C(=S)NC,T/C,[11],102 % of control
same,T/C,[15],120 % of control
same,T/C,[1],107 % of control
